The values that follow come from ChEMBL document CHEMBL1201862, “PubChem BioAssay data set” (2004).

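Assay format: 96-well plates, 48-hour exposure. GI50 is the concentration that inhibits growth by half.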 The source made the active and inactive calls. Rule as the data show it: active = GI50 up to about 1.1 µM and inactive = higher.

Holding throughout (assay): inhibition of tumour cell growth, NCI panel, 48 h
In experiment [1] the test system is A549.
Experiment [2] relates to LOX IMVI.
The subject of experiment [3] is SR.
Experiment [4] concerns HOP-18.
For experiment [5], the system named is K562.
Experiment [6] relates to MOLT-4.
In experiment [7] the test system is SW-620.
For experiment [8], the system named is SNB-78.
For experiment [9], the system named is UO-31.
Experiment [10] concerns OVCAR-3.
Experiment [11] deals with OVCAR-5.
The test system of experiment [12] is NCI/ADR-RES.
Experiment [13] concerns HCC 2998.
The subject of experiment [14] is DLD-1.
Experiment [15] has as its system DMS-114.
For experiment [16], the system named is HOP-62.
For experiment [17], the system named is NCI-H460.
The subject of experiment [18] is RPMI-8226.
The test system of experiment [19] is RXF 393.
Experiment [20] has as its system TK-10.

On to `CN(C)CCCNc1ccc2nnn3c4ccc([N+](=O)[O-])cc4c(=O)c1c23`, for which the GI50 in experiment [1] is 0.721 µM (active); in experiment [2] it was 0.641 µM (active); in experiment [3], 0.617 µM (active); in experiment [4], 0.729 µM (active); in experiment [5] it was 0.589 µM (active); in experiment [6], 0.21 µM (active). The GI50 in experiment [7] is 0.45 µM (active); in experiment [8], 2.08 µM (inactive); in experiment [9], 1.28 µM (inactive); in [10] it was 2.55 µM (inactive); in [11] it was 1.99 µM (inactive); in [12], 0.685 µM (active). Further, the GI50 in experiment [13] is 2.23 µM (inactive); in [14], 0.931 µM (active); in experiment [15], 1.89 µM (inactive); in experiment [16] it was 0.817 µM (active); in experiment [17] it was 0.313 µM (active); in [18], 0.946 µM (active). The GI50 is 1.12 µM (active) in experiment [19] and 1.13 µM (inactive) in experiment [20].
In the case of `C=C1C(=O)O[C@H]2C1[C@H](OC(=O)/C(C)=C\COC(C)=O)C[C@]1(CO1)[C@@H]1[C@H](O)[C@H]3O[C@@]3(C)[C@@H]12` (some centres undefined), the GI50 in [1] was 49.2 µM (inactive); in [2], 16.7 µM (inactive); in [4], 20 µM (inactive); in experiment [5], 15.2 µM (inactive); in [6], 19.5 µM (inactive); in [7] it was 13.2 µM (inactive). Also, the GI50 in [8] was 25.9 µM (inactive); in experiment [9], > 88.7 µM (inactive); in experiment [10], 18.3 µM (inactive); in experiment [11], > 71.6 µM (inactive); in experiment [12], 21.4 µM (inactive); in experiment [13], 15 µM (inactive). Also, the GI50 was 12.2 µM (inactive) in experiment [14]; 19.4 µM (inactive) in experiment [15]; > 100 µM (inactive) in experiment [16]; 33.4 µM (inactive) in experiment [17]; 13.3 µM (inactive) in [18]; 16.8 µM (inactive) in experiment [19].
As to `COC(=O)C(C#N)C1NC(=O)c2ccccc21` (centres undefined), the GI50 in experiment [1], in experiment [2], in [3], in [4], in experiment [5] and in experiment [6] was > 100 µM (inactive) in each case. The GI50 in [7], in [8], in [9], in experiment [10], in [11] and in experiment [13] was > 100 µM (inactive) each time. The GI50 in [14], in experiment [15], in experiment [16], in experiment [17], in experiment [18] and in [19] was > 100 µM (inactive) in each case. Moreover, the GI50 in experiment [20] was > 100 µM (inactive).
Regarding `C=C1C(=O)OC2/C=C(\C)CC(O)/C=C(/CO)CC(OC(=O)/C(C)=C/C)C12` (centres undefined), the GI50 in [1] was 155 µM (inactive); in experiment [2], 12.3 µM (inactive); in experiment [4] it was 26.3 µM (inactive); in [5], 18 µM (inactive); in experiment [6], 18.2 µM (inactive); in experiment [7], 17.6 µM (inactive). Also, the GI50 in experiment [8] is 49.4 µM (inactive); in experiment [9], 173 µM (inactive); in experiment [10], 29.9 µM (inactive); in experiment [11] it was 147 µM (inactive); in experiment [12], 130 µM (inactive); in [13] it was 42.7 µM (inactive). Further, the GI50 was 26.8 µM (inactive) in [14]; 14.3 µM (inactive) in [15]; 95.3 µM (inactive) in experiment [16]; 36 µM (inactive) in experiment [17]; 7.1 µM (inactive) in experiment [18]; 14.4 µM (inactive) in experiment [19].
For `CCC/C(=N\NC(=O)c1cc2ccccc2cc1O)C(CC)C(=O)CCC(=O)N(Cc1ccccc1)Cc1ccccc1` (centres undefined), the GI50 in [1] was 63 µM (inactive); in experiment [2] it was 43 µM (inactive); in [3] it was 31 µM (inactive); in experiment [4] it was 11 µM (inactive); in experiment [5], 26.2 µM (inactive); in [6], 30.7 µM (inactive). Also, the GI50 was 64 µM (inactive) in experiment [7]; > 100 µM (inactive) in experiment [8]; 54 µM (inactive) in experiment [9]; 20.5 µM (inactive) in experiment [10]; 36.2 µM (inactive) in experiment [11]; 67.5 µM (inactive) in [13]. In addition, the GI50 was 58.1 µM (inactive) in experiment [14]; 26.3 µM (inactive) in experiment [15]; 81.1 µM (inactive) in experiment [16]; 35.6 µM (inactive) in experiment [17]; 45.8 µM (inactive) in experiment [18]; 37 µM (inactive) in experiment [19]. Moreover, in experiment [20], the GI50 is > 100 µM (inactive).
